From patent US9376449B2, “Indole carboxamide derivative” (Astellas Pharma Inc., priority 2012, dated 2016)

Tests used:
human MT2 receptor = molecular target: T1, human MT2 receptor (Homo sapiens, UniProt P49286); test: Activation of human MT2 receptor in receptor-expressing HEK293 cells (intracellular Ca2+, FLIPR); type: cell-based; conditions: for Emax: HEK293, maximum reaction by ramelteon taken as 100%, solvent only 0%; for EC50: HEK293 cells stably expressing human MT2 and Gq/i chimeric G-protein, intracellular Ca2+ by FLIPR
T1 sequence (P49286 1-362): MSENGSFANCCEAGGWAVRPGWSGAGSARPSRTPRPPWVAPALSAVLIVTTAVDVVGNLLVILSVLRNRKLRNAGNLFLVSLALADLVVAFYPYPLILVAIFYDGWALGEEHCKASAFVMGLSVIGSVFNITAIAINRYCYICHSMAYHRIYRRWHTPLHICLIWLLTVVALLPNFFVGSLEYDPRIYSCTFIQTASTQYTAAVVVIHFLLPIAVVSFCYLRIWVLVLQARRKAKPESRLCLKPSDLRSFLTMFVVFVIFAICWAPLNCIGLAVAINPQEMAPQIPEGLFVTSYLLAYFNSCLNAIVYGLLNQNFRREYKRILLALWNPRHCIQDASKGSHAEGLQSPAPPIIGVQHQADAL
Protocol: (1) Isolation of Human MT1 and MT2 Receptor and Construction of Expression Vector
A human MT1 receptor gene (GenBank Accession No.: NM_005958.3) and a human MT2 receptor gene (GenBank Accession No.: NM_005959.3) were each introduced into an expression vector pCDNA3.1/Zeo (Invitrogen, Inc.).
(2) Construction of Cells Stably Expressing Human MT1 and Human MT2 Receptor
The introduction was carried out according to the attached instructions, using a Lipofectoamine (registered trademark) 2000 Reagent (Invitrogen, Inc.). Zeocin and hygromycin were used as a resistant drug, and the cell was incubated for 15 days at 0.02 mg/mL and 0.05 mg/mL, respectively, thereby acquiring drug-resistant clones.
(3) Measurement of Intracellular Ca^2+ Concentration by FLIPR (Registered Trademark)
The respective stably expressing cells were dispensed into 96-well poly-D-lysine-coated plates (Falcon Co.) to 40,000 cells/well the day before the experiment, and incubated overnight in a DMEM (Invitrogen, Inc.) medium including 10% FBS at 37° C. and 5% CO2. The medium was replaced with a loading buffer (washing solution (Hank's balanced salt solution (HBSS), 20 mM HEPES-NaOH, 2.5 mM probenecid) including Fluo-4AM (Dojindo Co.) at 4 μM), and incubated for 1 hour at 37° C. and 5% CO2. Thereafter, the cells were washed with a plate washer (ELx405, BIO-TEK Instrument, Inc.) set with the washing solution, and set in an intracellular Ca^2+ concentration measuring systems (FLIPR (registered trademark), Molecular Device Co.). The test compound was dissolved in the washing solution in advance, diluted to a final concentration of −12 to −5 log M, set in a FLIPR (registered trademark) device together with the cells, and added to the cells in the device. At this time, a change in the intracellular Ca^2+ concentrations was measured.
(§1) Ex represents Example No. of the test compound.

isolated urethra = test: Isolated urethra contractile action; set-up: species or system rat; conditions: for activation at 1 µM: test compound at 1 μM, contractile response by 10 μM phenylephrine as 100%, SD female rat urethra, read-out: Isolated urethra contraction (%)
Protocol: Test Example 2 Isolated Urethra Contractile Action
(1) Evaluation Test on Urethra Contractile Action of Test Compound Using Isolated Urethra
The urethra was isolated from an SD female rat having a body weight of 100 to 500 g. The isolated urethra was incised longitudinally to give a rectangular strip specimen having a width of about 3 mm, which was suspended in the circular muscle direction in 10 mL of a tissue bath filled with a Krebs-Henseleit solution (pH 7.4). The Krebs-Henseleit solution was bubbled with 95% O2 and 5% CO2, and kept at 37° C. The resting tension was set to 0.5 g to record the isometric contraction. After the resting tension was stabilized, contraction was elicited by the addition of 10 μM phenylephrine. After washing and stabilizing, the test compound was added cumulatively to a final concentration of −12 to −5 log M to measure a contractile response. By taking the contractile response by 10 μM phenylephrine as 100%, the ratio of the contractile response in the concentration of the test compound at 1 μM was calculated.
as §1

[1] = test system: sleep steps of electroencephalogram; test: Measurement test of electroencephalogram in rat (sleep-awake cycle); type: in vivo; conditions: for sleep action: rat electroencephalogram, 0.1, 1 and 10 mg/kg intraperitoneally; for change in the occupancy in the respective sleep steps of electroencephalogram: any of the doses 0.1, 1 and 10 mg/kg intraperitoneally
Protocol: Test Example 5 Measurement Test of Electroencephalogram in Rat
In order to accustom the animals to operations during the experiment, handling was carried out for about 1 minute for one example once a day from the next day of the animal acquisition to the day before the administration.
(2) Method for Preparing Electroencephalogram Electrode-Implanted Specimen
After the completion of a quarantine period, the animals showing no abnormal health condition were subjected to an electroencephalogram electrode chronic implantation surgery with reference to brain atlas of Pellegrino et al. Under anesthesia with pentobarbital sodium (45 mg/kg, i.p.), the rat was calibrated in a brain stereotaxic apparatus. In the frontal cortex, a monopolar silver ball electrode having a diameter of the tip of about 1 mm was placed on a hard film of the brain. Into the hippocampus, a laminated bipolar electrodes made of stainless steel was stuck. The reference electrode was screwed around the olfactory brain. Further, as for the electromyogram measurement, the lead wire was implanted in the both electrodes about 1 cm between the electrodes in the neck portion. The other end was exposed to the head portion subcutaneously. The electrodes and the lead wires were subjected to soldering with connector sockets and fixed to the skull with a dental resin or the like.
(3) Sorting and Grouping of Animals
It was confirmed that twenty five rat examples which had been subjected to an electroencephalogram electrode chronic implantation surgery were recovered from the invasion of the surgery, and stable electroencephalogram were obtained therefrom. The weights of the animals were measured after 6 days from the surgery using an electronic scale balance the day before the first administration, and twenty rats were chosen in the descending order and distributed to perform administration. The administration order for the test materials was determined by a stratified random allocation method using a random number function of a spreadsheet software Excel (Microsoft Corporation).
The rats were accommodated in a measurement cage under rat feeding and water supply on the morning of the day of administration, and accustomed to the measurement environment. After measuring the weight using an electronic scale balance, a lead wire and a connector socket were connected 30 minutes or more before the start of the electroencephalogram measurement, and the rat was accustomed in the measurement state under no anesthesia and no custody. The test compounds (solvent, 0.1 mg/kg, 1 mg/kg, and 10 mg/kg) were intraperitoneally administered to the rats and the electroencephalogram was measured continuously until 6 hours after the administration.
The frequency of brain wave were acquired by applying electrical signals of electroencephalogram and of electromyogram an electroencephalogram system and using an electroencephalogram frequency analysis program of a personal computer from the electroencephalograph system. In addition, the image signals of the electroencephalogram waveform were applied to an EEG video system and recorded on a DVD recorder. The behavior observation was carried out through a video camera at the same time as the electroencephalogram measurement and the images were also recorded with the DVD recorder.
(i) Spontaneous Electroencephalogram
The presence or absence of abnormality in the electroencephalogram waveform in up to 6 hours from immediately after the administration, to each animal, respectively, was observed.
The analysis of a sleep-awake cycle was visually carried out using a sleep stage display-supporting program based on the electroencephalogram waveforms acquired with an electroencephalogram frequency analysis program. […]

Emax (human MT2 receptor)	EC50 (human MT2 receptor)	SMILES	activation at 1 µM (isolated urethra)	sleep action [1]	change in the occupancy in the respective sleep steps of electroencephalogram ([1]; rat)	urethra contractile action (isolated urethra; isolated rat urethra, in words)	occupancy of the sleep step of electroencephalogram ([1]; rat, 0.1 mg/kg intraperitoneally, up to 6 hours)	occupancy of the respective sleep step ([1]; rat, 1 mg/kg intraperitoneally, up to 6 hours)
109%	28 nM	CNC(=O)c1[nH]c2ccc(OC)cc2c1CCNC(=O)C(F)F [Ex 2, 3-{2-[(difluoroacetyl)amino]ethyl}-5-methoxy-N-methyl-1H-indole-2-carboxamide]	167%	there was no sleep action	no change in the occupancy in the respective sleep steps of electroencephalogram could not be seen			
94%	58 nM	CNC(=O)c1[nH]c2cc(F)c(OC)cc2c1CCNC(C)=O [Ex 17]	132%	there was no sleep action	no change in the occupancy in the respective sleep steps of electroencephalogram could not be seen			
100%	1.1 nM	CCC(=O)NCC[C@@H]1CCc2ccc3c(c21)CCO3 [Ramelteon, reference compound]	242%	there is a sleep action		good urethra contractile action	tendency that the occupancy of the sleep step of electroencephalogram from a dose of 0.1 mg/kg increases	significantly increases
